# In patent publication US20240115557A1, “INHIBITORS OF RNA-GUIDED NUCLEASES AND USES THEREOF” (The Brigham and Women's Hospital, Inc., priority 2022, published 2024):
# Assays:
# U2OS.eGFP.PEST cells = assay: CellTiter-Glo cell viability assay, U2OS.eGFP.PEST; assay type: cell-based, human; conditions: 24 h
# Experimental: HEK293T cells or U2OS.eGFP.PEST cells were plated in a 96-well plate at the density of 30,000 cells per well or 20,000 cells per well, respectively. The next day, cells were treated with indicated amount of compounds for 24 h. Then, cellular ATP levels were measured using CellTiter-Glo Luminescent Cell Viability Assay (Promega) with an EnVision Multilabel Plate Reader (PerkinElmer) at the integration time of 0.5 s per well.
# SpCas9 [1] = biological target: T1, SpCas9 (Streptococcus pyogenes serotype M1, UniProt Q99ZW2); assay: eGFP disruption assay, SpCas9, U2OS.eGFP.PEST cells; assay type: cell-based
# Summary of the method: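 Rescue of eGFP signal lost through Cas9-induced NHEJ indels serves as the inhibition read-out, after 24 h compound exposure (20 μM for hits, variable for dose-response). Editing was delivered by nucleofection into U2OS.eGFP.PEST cells as SpCas9/gRNA plasmids (300/30 ng) or RNP (10/12 pmol). Toxic and autofluorescent compounds were excluded.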
# SpCas9 [2] = biological target: T1, SpCas9; assay: HiBiT knock-in assay, SpCas9, HEK293T cells; assay type: cell-based
# Excerpt: Primary and secondary screening. The primary screen assayed a selection of unique chemical scaffolds derived from commercially available compounds and known bioactive molecular libraries (Table 7). Auto-fluorescent compounds were removed by a counter screen. Overall, the CAA was used to assay 122,409 small molecules with over 2,500 unique chemical scaffolds (FIG. 64F, Table 7). Of these compounds, 547 were selected as hits (Z score >3 in both replicates) for testing in orthogonal cell-based secondary assays. Hits were tested in duplicate in an eGFP disruption assay, wherein U2OS.eGFP.PEST cells^33 transfected with SpCas9 plasmid and eGFP-targeting gRNA plasmid were incubated with 20 μM of the compounds. In this assay, any compound that inhibited SpCas9 would rescue the loss of eGFP fluorescence. Here, toxic and auto-fluorescent compounds with a high GFP signal in cells were removed as false positives. […] Next, Applicants tested the 15 compounds in a luminescence-based gain-of-signal HiBiT knock-in assay, which involves SpCas9-mediated homology-directed tagging of GAPDH with a short peptide that luminesces upon complementation with a subunit derived from nanoluciferase.^34 Complementarily, the eGFP-disruption assay is fluorescence-based and involves error-prone DNA repair. As a counter-screen to remove false positives caused by cell death (viability <80%), the cell viability was measured after incubation.
# Approximately 400,000 HEK293T cells were nucleofected with 400 ng of SpCas9 plasmid, 40 ng of GAPDH-targeting gRNA plasmid, and 40 pmol of single-strand oligodeoxynucleotide (ssODN) using SF Cell Line 4D-Nucleofector X Kit (Lonza) following the pulse program of DS-150. For RNP-based genome editing, 10 pmol of Cas9 and 12 pmol of gRNA were mixed and incubated for 5 min. Then, 20 pmol of ssODN was added. Cells were nucleofected with the resulting mixture using the same pulse program. Cells were then transferred to a 96-well plate at the density of 35,000 cells per well, and incubated with indicated amount of compounds for 24 h. Cell viability was measured using PrestoBlue reagent (Thermo) with a SpectraMax M5 (Molecular Devices) at the excitation and emission wavelength of 544 nm and 590 nm, respectively. Next, luminescence measurement was performed using the Nano-Glo HiBiT Lytic Detection System (Promega) according to the manufacturer's protocol with an EnVision Multilabel Plate Reader (PerkinElmer) at the integration time of 0.5 s per well. The resulting luminescence signals were normalized based on the cell viability.^34
# T1 sequence (Q99ZW2 whole entry): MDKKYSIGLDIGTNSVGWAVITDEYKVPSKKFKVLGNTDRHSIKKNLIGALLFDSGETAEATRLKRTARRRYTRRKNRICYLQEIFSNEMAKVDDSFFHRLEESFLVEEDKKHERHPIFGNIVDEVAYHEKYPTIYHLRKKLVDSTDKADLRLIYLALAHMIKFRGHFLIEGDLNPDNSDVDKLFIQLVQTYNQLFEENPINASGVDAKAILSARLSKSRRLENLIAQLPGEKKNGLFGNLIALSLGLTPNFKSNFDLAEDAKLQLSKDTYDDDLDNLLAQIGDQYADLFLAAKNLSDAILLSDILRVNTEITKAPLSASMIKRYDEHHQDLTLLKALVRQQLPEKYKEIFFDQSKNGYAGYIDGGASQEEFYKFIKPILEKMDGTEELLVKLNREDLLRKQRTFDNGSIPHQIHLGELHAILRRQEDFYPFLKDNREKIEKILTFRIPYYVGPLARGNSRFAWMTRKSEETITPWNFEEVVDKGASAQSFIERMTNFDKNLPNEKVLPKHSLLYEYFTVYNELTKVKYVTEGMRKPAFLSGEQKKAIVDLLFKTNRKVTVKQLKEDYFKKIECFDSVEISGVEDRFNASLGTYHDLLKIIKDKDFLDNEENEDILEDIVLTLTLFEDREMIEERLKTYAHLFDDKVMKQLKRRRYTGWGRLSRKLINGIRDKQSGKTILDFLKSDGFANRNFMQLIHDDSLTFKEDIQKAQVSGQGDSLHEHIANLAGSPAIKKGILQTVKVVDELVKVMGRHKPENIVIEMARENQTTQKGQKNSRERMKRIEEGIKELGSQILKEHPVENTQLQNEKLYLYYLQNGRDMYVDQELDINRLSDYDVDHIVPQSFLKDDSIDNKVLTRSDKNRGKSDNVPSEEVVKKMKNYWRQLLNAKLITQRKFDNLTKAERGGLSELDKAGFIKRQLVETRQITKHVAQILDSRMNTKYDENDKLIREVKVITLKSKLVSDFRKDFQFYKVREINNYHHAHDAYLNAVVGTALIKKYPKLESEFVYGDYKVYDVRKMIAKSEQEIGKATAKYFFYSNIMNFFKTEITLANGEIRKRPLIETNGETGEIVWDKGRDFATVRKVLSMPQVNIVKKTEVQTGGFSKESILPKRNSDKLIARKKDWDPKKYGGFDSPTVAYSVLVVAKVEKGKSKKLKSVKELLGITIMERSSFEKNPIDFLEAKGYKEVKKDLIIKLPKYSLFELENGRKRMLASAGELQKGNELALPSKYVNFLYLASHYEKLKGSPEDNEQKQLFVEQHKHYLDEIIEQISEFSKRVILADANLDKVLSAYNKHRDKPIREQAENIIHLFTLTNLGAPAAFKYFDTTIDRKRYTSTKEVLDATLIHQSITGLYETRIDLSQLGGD
smiles,measurement,setting,value
O=C(CCS(=O)(=O)c1ccc(Cl)cc1)Nc1nc(-c2ccncc2)cs1 [BRD7586],Cytotoxicity,U2OS.eGFP.PEST cells,without introducing cytotoxicity
same,EC50,"SpCas9 [1]; EC50 in eGFP disruption assay, U2OS.eGFP.PEST, SpCas9 plasmid and sgRNA plasmid, 0.3 uM to 20 uM, 24 h (FIG. 44A/C)",5.55 µM
same,EC50,"SpCas9 [1]; EC50 in the eGFP disruption assay, from three independent experiments",6.2 ± 1.2 µM
same,Potency relative to BRD0539,SpCas9 [1]; more potent than BRD0539,~2 fold
same,EC50,"SpCas9 [2]; EC50 in HiBit knockin assay, HEK293T, SpCas9 plasmid, sgRNA plasmid and ssODN, 0.06 uM to 20 uM, 24 h (FIG. 44D)",5.04 µM
same,EC50,"SpCas9 [2]; EC50 in the HiBiT knock-in assay, from three independent experiments",5.7 ± 0.36 µM
